Assay results taken from the CheMixHub ionic liquid set.
± gives the uncertainty stated by the source.

Test: xn = mol fraction of the nth substance listed
Settings: 100 kPa

`CCCCCCCC[n+]1ccccc1.[Br-]` + CC(C)[C@H](NC(=O)CN)C(=O)O + O showed an electrical conductivity (298.15 K, x2 = 0.001788, x1 = 0.005721) of 1.59 ± 0.096 S/m, an electrical conductivity (298.15 K, x2 = 0.001788, x1 = 0.00598) of 1.64 ± 0.098 S/m and an electrical conductivity (298.15 K, x2 = 0.001789, x1 = 0.00542) of 1.54 ± 0.092 S/m. The electrical conductivity (298.15 K, x2 = 0.00179, x1 = 0.004736) was 1.42 ± 0.085 S/m, the electrical conductivity (298.15 K, x2 = 0.00179, x1 = 0.005091) was 1.49 ± 0.089 S/m and the electrical conductivity (298.15 K, x2 = 0.001791, x1 = 0.004349) was 1.35 ± 0.081 S/m. For the same compound, the electrical conductivity (298.15 K, x2 = 0.001792, x1 = 0.003932) was 1.27 ± 0.076 S/m, the electrical conductivity (298.15 K, x2 = 0.001793, x1 = 0.002972) was 1.03 ± 0.062 S/m and the electrical conductivity (298.15 K, x2 = 0.001793, x1 = 0.003476) was 1.17 ± 0.07 S/m. It also gave an electrical conductivity (298.15 K, x2 = 0.001794, x1 = 0.002419) of 0.883 ± 0.053 S/m, an electrical conductivity (298.15 K, x2 = 0.001796, x1 = 0.001458) of 0.586 ± 0.035 S/m and an electrical conductivity (298.15 K, x2 = 0.001796, x1 = 0.001805) of 0.699 ± 0.042 S/m. It also gave an electrical conductivity (298.15 K, x2 = 0.001797, x1 = 0.0007114) of 0.326 ± 0.02 S/m, an electrical conductivity (298.15 K, x2 = 0.001797, x1 = 0.001099) of 0.462 ± 0.028 S/m and an electrical conductivity (303.15 K, x2 = 0.0008946, x1 = 0.006155) of 1.91 ± 0.12 S/m. The electrical conductivity (303.15 K, x2 = 0.0008949, x1 = 0.005878) was 1.86 ± 0.11 S/m, the electrical conductivity (303.15 K, x2 = 0.0008952, x1 = 0.005571) was 1.8 ± 0.11 S/m and the electrical conductivity (303.15 K, x2 = 0.0008955, x1 = 0.005244) was 1.74 ± 0.1 S/m. The electrical conductivity (303.15 K, x2 = 0.0008958, x1 = 0.004883) was 1.67 ± 0.1 S/m, the electrical conductivity (303.15 K, x2 = 0.0008961, x1 = 0.004503) was 1.6 ± 0.096 S/m and the electrical conductivity (303.15 K, x2 = 0.0008965, x1 = 0.004075) was 1.49 ± 0.09 S/m. It also gave an electrical conductivity (303.15 K, x2 = 0.0008969, x1 = 0.003606) of 1.38 ± 0.083 S/m, an electrical conductivity (303.15 K, x2 = 0.0008974, x1 = 0.003092) of 1.22 ± 0.073 S/m and an electrical conductivity (303.15 K, x2 = 0.0008979, x1 = 0.002527) of 1.05 ± 0.063 S/m. The electrical conductivity (303.15 K, x2 = 0.0008985, x1 = 0.001896) was 0.834 ± 0.05 S/m, the electrical conductivity (303.15 K, x2 = 0.0008988, x1 = 0.001509) was 0.689 ± 0.042 S/m and the electrical conductivity (303.15 K, x2 = 0.0008992, x1 = 0.001132) was 0.543 ± 0.033 S/m. For the same compound, the electrical conductivity (303.15 K, x2 = 0.0008995, x1 = 0.0007259) was 0.385 ± 0.023 S/m, the electrical conductivity (303.15 K, x2 = 0.001788, x1 = 0.005719) was 1.79 ± 0.11 S/m and the electrical conductivity (303.15 K, x2 = 0.001788, x1 = 0.005978) was 1.84 ± 0.11 S/m. For the same compound, the electrical conductivity (303.15 K, x2 = 0.001789, x1 = 0.005417) was 1.73 ± 0.1 S/m, the electrical conductivity (303.15 K, x2 = 0.00179, x1 = 0.004734) was 1.6 ± 0.096 S/m and the electrical conductivity (303.15 K, x2 = 0.00179, x1 = 0.005087) was 1.67 ± 0.1 S/m. The electrical conductivity (303.15 K, x2 = 0.001791, x1 = 0.004349) was 1.52 ± 0.091 S/m, the electrical conductivity (303.15 K, x2 = 0.001792, x1 = 0.00393) was 1.42 ± 0.085 S/m and the electrical conductivity (303.15 K, x2 = 0.001793, x1 = 0.002972) was 1.16 ± 0.069 S/m. The electrical conductivity (303.15 K, x2 = 0.001793, x1 = 0.003474) was 1.3 ± 0.078 S/m, the electrical conductivity (303.15 K, x2 = 0.001794, x1 = 0.002419) was 0.983 ± 0.059 S/m and the electrical conductivity (303.15 K, x2 = 0.001796, x1 = 0.001458) was 0.652 ± 0.039 S/m. It also gave an electrical conductivity (303.15 K, x2 = 0.001796, x1 = 0.001805) of 0.778 ± 0.047 S/m, an electrical conductivity (303.15 K, x2 = 0.001797, x1 = 0.0007114) of 0.361 ± 0.022 S/m and an electrical conductivity (303.15 K, x2 = 0.001797, x1 = 0.001099) of 0.512 ± 0.031 S/m. The electrical conductivity (308.15 K, x2 = 0.0008946, x1 = 0.006153) was 2.17 ± 0.13 S/m, the electrical conductivity (308.15 K, x2 = 0.0008949, x1 = 0.005877) was 2.11 ± 0.13 S/m and the electrical conductivity (308.15 K, x2 = 0.0008952, x1 = 0.00557) was 2.04 ± 0.12 S/m. The electrical conductivity (308.15 K, x2 = 0.0008955, x1 = 0.005243) was 1.95 ± 0.12 S/m, the electrical conductivity (308.15 K, x2 = 0.0008958, x1 = 0.004881) was 1.86 ± 0.11 S/m and the electrical conductivity (308.15 K, x2 = 0.0008961, x1 = 0.004503) was 1.77 ± 0.11 S/m. The electrical conductivity (308.15 K, x2 = 0.0008965, x1 = 0.004075) was 1.66 ± 0.1 S/m, the electrical conductivity (308.15 K, x2 = 0.0008969, x1 = 0.003606) was 1.52 ± 0.091 S/m and the electrical conductivity (308.15 K, x2 = 0.0008974, x1 = 0.003092) was 1.35 ± 0.081 S/m. For the same compound, the electrical conductivity (308.15 K, x2 = 0.0008979, x1 = 0.002525) was 1.15 ± 0.069 S/m, the electrical conductivity (308.15 K, x2 = 0.0008985, x1 = 0.001896) was 0.905 ± 0.054 S/m and the electrical conductivity (308.15 K, x2 = 0.0008988, x1 = 0.001509) was 0.753 ± 0.045 S/m. The electrical conductivity (308.15 K, x2 = 0.0008992, x1 = 0.001132) was 0.6 ± 0.036 S/m, the electrical conductivity (308.15 K, x2 = 0.0008995, x1 = 0.0007259) was 0.446 ± 0.027 S/m and the electrical conductivity (308.15 K, x2 = 0.001788, x1 = 0.005717) was 2 ± 0.12 S/m. For the same compound, the electrical conductivity (308.15 K, x2 = 0.001788, x1 = 0.005974) was 2.06 ± 0.12 S/m, the electrical conductivity (308.15 K, x2 = 0.001789, x1 = 0.005415) was 1.94 ± 0.12 S/m and the electrical conductivity (308.15 K, x2 = 0.00179, x1 = 0.004732) was 1.78 ± 0.11 S/m. It also gave an electrical conductivity (308.15 K, x2 = 0.00179, x1 = 0.005087) of 1.86 ± 0.11 S/m, an electrical conductivity (308.15 K, x2 = 0.001791, x1 = 0.004348) of 1.68 ± 0.1 S/m and an electrical conductivity (308.15 K, x2 = 0.001792, x1 = 0.00393) of 1.58 ± 0.095 S/m. The electrical conductivity (308.15 K, x2 = 0.001793, x1 = 0.002972) was 1.28 ± 0.077 S/m, the electrical conductivity (308.15 K, x2 = 0.001793, x1 = 0.003474) was 1.44 ± 0.086 S/m and the electrical conductivity (308.15 K, x2 = 0.001794, x1 = 0.002419) was 1.09 ± 0.065 S/m. For the same compound, the electrical conductivity (308.15 K, x2 = 0.001796, x1 = 0.001456) was 0.714 ± 0.043 S/m, the electrical conductivity (308.15 K, x2 = 0.001796, x1 = 0.001805) was 0.853 ± 0.051 S/m and the electrical conductivity (308.15 K, x2 = 0.001797, x1 = 0.0007114) was 0.409 ± 0.025 S/m. It also gave an electrical conductivity (308.15 K, x2 = 0.001797, x1 = 0.001099) of 0.567 ± 0.034 S/m.
